Experimental data as given in ChEMBL document CHEMBL6121006, “Marine natural product-inspired discovery of novel BRD4 inhibitors with anti-inflammatory activity” (Eur J Med Chem, 2025).
Activity calls are given as the source filed them. The rule behind the calls is not given here.

What was measured:
[1] = biological target: Bromodomain-containing protein 4 (Homo sapiens, UniProt O60885); assay: Inhibition of human recombinant BRD4 BD2 (349 to 460 residues) extracted from Escherichia coli BL21 (DE3) incubated for 2 hrs by TR-FRET assay
RAW264.7 [2] = assay: Anti-inflammatory activity in mouse RAW264.7 cells assessed as inhibition of LPS-induced NO production preincubated with compound for 24 hrs followed by LPS stimulation by Griess reagent based analysis; type: functional, cell-based
[3] = biological target: Bromodomain-containing protein 2 (Homo sapiens) (UniProt P25440); assay: Inhibition of BRD2 BD1 (unknown origin) at 1 uM incubated for 2 hrs by TR-FRET assay relative to control
Chain of Bromodomain-containing protein 2 (Homo sapiens) (P25440 whole entry, looked up): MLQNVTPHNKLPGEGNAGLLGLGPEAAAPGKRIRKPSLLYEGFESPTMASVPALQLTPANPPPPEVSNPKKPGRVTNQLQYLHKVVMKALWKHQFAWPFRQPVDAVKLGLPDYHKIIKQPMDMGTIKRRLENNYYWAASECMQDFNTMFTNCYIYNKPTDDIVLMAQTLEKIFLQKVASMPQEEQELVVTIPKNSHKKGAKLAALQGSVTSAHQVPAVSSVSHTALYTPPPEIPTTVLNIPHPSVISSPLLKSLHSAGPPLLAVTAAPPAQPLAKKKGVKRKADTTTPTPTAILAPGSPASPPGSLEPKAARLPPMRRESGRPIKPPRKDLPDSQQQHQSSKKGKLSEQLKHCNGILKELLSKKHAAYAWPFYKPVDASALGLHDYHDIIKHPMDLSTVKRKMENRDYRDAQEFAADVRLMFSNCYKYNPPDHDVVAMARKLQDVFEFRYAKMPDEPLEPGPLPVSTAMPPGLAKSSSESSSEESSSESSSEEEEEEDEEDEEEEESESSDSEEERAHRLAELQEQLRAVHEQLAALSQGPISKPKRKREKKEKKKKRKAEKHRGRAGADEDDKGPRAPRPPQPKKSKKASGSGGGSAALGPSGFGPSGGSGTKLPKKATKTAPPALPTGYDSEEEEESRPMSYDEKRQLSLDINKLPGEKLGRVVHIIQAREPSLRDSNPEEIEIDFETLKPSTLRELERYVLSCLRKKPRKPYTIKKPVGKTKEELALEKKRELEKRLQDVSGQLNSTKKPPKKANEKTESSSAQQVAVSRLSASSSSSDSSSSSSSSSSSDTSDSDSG

[4] = biological target: Bromodomain-containing protein 3 (Homo sapiens) (UniProt Q15059); assay: Inhibition of BRD3 BD2 (unknown origin) at 1 uM incubated for 2 hrs by TR-FRET assay relative to control
Chain of Bromodomain-containing protein 3 (Homo sapiens) (Q15059 2-726 limits assumed): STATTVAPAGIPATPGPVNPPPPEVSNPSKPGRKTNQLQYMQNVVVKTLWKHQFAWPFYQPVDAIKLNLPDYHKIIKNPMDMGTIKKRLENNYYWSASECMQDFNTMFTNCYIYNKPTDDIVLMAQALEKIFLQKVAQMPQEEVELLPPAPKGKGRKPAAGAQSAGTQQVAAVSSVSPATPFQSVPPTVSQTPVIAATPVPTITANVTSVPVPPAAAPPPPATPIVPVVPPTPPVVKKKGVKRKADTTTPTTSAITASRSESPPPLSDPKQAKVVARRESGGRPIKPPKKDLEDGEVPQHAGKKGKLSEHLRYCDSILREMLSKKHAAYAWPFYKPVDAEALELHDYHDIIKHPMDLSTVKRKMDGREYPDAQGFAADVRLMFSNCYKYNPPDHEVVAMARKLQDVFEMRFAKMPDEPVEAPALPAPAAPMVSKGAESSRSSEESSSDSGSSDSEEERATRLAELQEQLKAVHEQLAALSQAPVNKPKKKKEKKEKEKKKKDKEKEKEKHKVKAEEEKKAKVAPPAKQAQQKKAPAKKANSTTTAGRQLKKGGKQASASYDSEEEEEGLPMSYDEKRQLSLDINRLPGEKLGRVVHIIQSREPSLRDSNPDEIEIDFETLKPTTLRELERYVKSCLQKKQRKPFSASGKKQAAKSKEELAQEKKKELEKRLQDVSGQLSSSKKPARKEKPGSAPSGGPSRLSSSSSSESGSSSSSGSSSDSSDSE

[5] = biological target: T1, ATPase family AAA domain-containing protein 2 (Homo sapiens) (UniProt Q6PL18); assay: Inhibition of ATAD2A (unknown origin) at 1 uM incubated for 2 hrs by TR-FRET assay relative to control
T1 sequence (whole entry): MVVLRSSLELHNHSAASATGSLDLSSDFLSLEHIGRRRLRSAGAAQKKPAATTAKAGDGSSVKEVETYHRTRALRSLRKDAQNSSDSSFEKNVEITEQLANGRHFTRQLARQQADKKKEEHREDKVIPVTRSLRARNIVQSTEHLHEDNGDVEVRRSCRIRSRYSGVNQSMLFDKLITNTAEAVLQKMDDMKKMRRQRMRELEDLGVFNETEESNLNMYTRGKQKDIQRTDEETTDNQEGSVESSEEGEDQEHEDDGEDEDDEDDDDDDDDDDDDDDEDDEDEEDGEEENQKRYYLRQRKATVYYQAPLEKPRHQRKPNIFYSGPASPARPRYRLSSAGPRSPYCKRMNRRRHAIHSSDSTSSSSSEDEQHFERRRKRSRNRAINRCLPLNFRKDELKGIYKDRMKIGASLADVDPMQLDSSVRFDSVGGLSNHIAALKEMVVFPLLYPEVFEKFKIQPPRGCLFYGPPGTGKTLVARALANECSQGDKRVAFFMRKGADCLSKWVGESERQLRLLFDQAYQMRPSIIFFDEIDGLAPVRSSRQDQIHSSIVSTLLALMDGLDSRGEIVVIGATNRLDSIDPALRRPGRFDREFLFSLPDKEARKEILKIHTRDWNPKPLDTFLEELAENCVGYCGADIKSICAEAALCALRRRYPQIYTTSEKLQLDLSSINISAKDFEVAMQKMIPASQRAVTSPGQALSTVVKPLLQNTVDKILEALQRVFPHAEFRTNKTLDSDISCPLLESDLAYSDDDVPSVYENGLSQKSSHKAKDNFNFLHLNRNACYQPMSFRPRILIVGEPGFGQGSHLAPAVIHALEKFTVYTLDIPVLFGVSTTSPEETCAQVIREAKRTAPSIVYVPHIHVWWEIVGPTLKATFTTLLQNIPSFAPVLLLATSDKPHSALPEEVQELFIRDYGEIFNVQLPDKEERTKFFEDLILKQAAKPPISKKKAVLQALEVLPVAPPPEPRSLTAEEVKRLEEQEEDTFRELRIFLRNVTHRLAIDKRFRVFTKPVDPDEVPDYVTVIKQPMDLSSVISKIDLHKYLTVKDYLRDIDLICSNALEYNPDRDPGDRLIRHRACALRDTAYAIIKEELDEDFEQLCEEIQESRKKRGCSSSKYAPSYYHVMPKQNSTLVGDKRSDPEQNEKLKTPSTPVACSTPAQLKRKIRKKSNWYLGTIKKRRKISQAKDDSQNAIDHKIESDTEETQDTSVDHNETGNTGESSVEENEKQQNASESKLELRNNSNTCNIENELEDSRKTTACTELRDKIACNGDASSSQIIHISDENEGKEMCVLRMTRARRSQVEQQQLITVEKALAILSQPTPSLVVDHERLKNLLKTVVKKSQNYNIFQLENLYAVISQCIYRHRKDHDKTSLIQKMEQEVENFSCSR

THP-1 [6] = assay: Cytotoxicity against human THP-1 cells at 20 uM measured after 24 hrs by CCK8 method; type: functional, cell-based
RAW264.7 [7] = assay: Anti-inflammatory activity in mouse RAW264.7 cells assessed as inhibition of LPS-induced IL-6 expression preincubated with compound for 2 hrs followed by LPS stimulation and measured after 6 hrs by RT-qPCR analysis; type: functional, cell-based; settings: dose 2.5-20 µM, time 8.0 hrs
THP-1 [8] = assay: Anti-inflammatory activity in human THP-1 cells assessed as inhibition of LPS-induced TNF-alpha expression preincubated with compound for 2 hrs followed by LPS stimulation and measured after 6 hrs by RT-qPCR analysis; type: functional, cell-based; settings: dose 2.5-20 µM, time 8.0 hrs
THP-1 [9] = assay: Anti-inflammatory activity in human THP-1 cells assessed as inhibition of LPS-induced IL-6 level preincubated with compound for 2 hrs followed by LPS stimulation and measured after 22 hrs by ELISA method; type: functional, cell-based; settings: dose 2.5-20 µM, time 24.0 hrs
Mus musculus [10] = assay: Antiinflammatory activity against C57BL/6 mouse acute inflammation model assessed as inhibition of LPS-induced TNF-alpha level at 50 to 100 mg/kg, po pre-administered for 2 hrs followed by LPS stimulation for 6 hrs by ELISA method; type: functional, organism-based; settings: dose 50-100 mg/kg, time 8.0 hrs
Mus musculus [11] = assay: Antiinflammatory activity against C57BL/6 mouse acute inflammation model assessed as reduction in LPS induced lung edema at 50 to 100 mg/kg, po pre-administered for 2 hrs followed by LPS stimulation for 6 hrs; type: functional, organism-based; settings: dose 50-100 mg/kg, time 8.0 hrs
Mus musculus [12] = assay: Antiinflammatory activity against LPS-induced C57BL/6 mouse acute inflammation model assessed as improvement of distorted hepatic lobular structure in liver at 50 to 100 mg/kg, po pre-administered for 2 hrs followed by LPS stimulation for 6 hrs; type: functional, organism-based; settings: dose 50-100 mg/kg, time 8.0 hrs
Mus musculus [13] = assay: Antiinflammatory activity against LPS-induced C57BL/6 mouse acute inflammation model assessed as rescue of damaged glomerular cells in kidney at 50 to 100 mg/kg, po pre-administered for 2 hrs followed by LPS stimulation for 6 hrs; type: functional, organism-based; settings: dose 50-100 mg/kg, time 8.0 hrs
Mus musculus [14] = assay: Antiinflammatory activity against LPS-induced C57BL/6 mouse acute inflammation model assessed as increase in proportion of normal renal tubules at 100 mg/kg, po pre-administered for 2 hrs followed by LPS stimulation for 6 hrs; type: functional, organism-based; settings: time 8.0 hrs
[15] = Toxicity in C57BL/6 mouse effect on kidney at 100 mg/kg, po measured after 24 hrs; type: organism-based; settings: in vivo
[16] = Toxicity in C57BL/6 mouse effect on intestine at 100 mg/kg, po measured after 24 hrs; type: organism-based; settings: in vivo

`COc1ccc(/C=C/c2nc3cc(OC)cc(OC)c3c(=O)[nH]2)cc1` showed an IC50 [1] of 120 nM, an IC50 (RAW264.7 [2]) of 1980 nM and an inhibition [3] of 24%. The inhibition [4] was 44%, the inhibition [5] was 5% and the Activity (THP-1 [6]) was “inactive”. The Activity (RAW264.7 [7]) was “Dose-dependent-effect”, the Activity (THP-1 [8]) was “Dose-dependent-effect” and the Activity (THP-1 [9]) was “Dose-dependent-effect”. For the same compound, the Activity (Mus musculus [10]) was “Active”, the Activity (Mus musculus [11]) was “Active” and the Activity (Mus musculus [12]) was “Active”. For the same compound, the Activity (Mus musculus [13]) was “Active”, the Activity (Mus musculus [14]) was “Active” and the Activity [15] was “Non-toxic”. The Activity [16] was “Non-toxic”.
